Results reported in the supplement of paper PMC11451515.

System: SEM cells
Test: cell viability relative to DMSO control; higher = less cytotoxic
Conditions: 48 h
Procedure, shortened: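 NOMO1, SEM and P12-Ichikawa leukemia cells spent at least four passages adapting to each medium before use. They were seeded at 500 cells/well (NOMO1, SEM) or 1000 cells/well (P12-Ichikawa) in 5 μl in 1536-well plates and pin-dosed with library compounds in DMSO at 11 threefold steps from 47 μM down to 0.79 nM. After 48 h at 37°C, CellTiter-Glo One luminescence was read. Viability is reported as a percentage of the DMSO wells on each plate, with cell-free wells as background.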

[1] = HPLM + 10% dialyzed FBS, 0.000781 µM
[2] = HPLM + 10% dialyzed FBS, 0.00234 µM
[3] = HPLM + 10% dialyzed FBS, 0.00702 µM
[4] = HPLM + 10% dialyzed FBS, 0.0211 µM
[5] = HPLM + 10% dialyzed FBS, 0.0632 µM
[6] = HPLM + 10% dialyzed FBS, 0.19 µM
[7] = HPLM + 10% dialyzed FBS, 0.569 µM
[8] = HPLM + 10% dialyzed FBS, 1.71 µM
[9] = HPLM + 10% dialyzed FBS, 5.12 µM
[10] = HPLM + 10% dialyzed FBS, 15.4 µM
[11] = HPLM + 10% dialyzed FBS, 46.1 µM
[12] = RPMI 5 mM glucose + 10% FBS, 0.000781 µM
[13] = RPMI 5 mM glucose + 10% FBS, 0.00234 µM
[14] = RPMI 5 mM glucose + 10% FBS, 0.00702 µM
[15] = RPMI 5 mM glucose + 10% FBS, 0.0211 µM
[16] = RPMI 5 mM glucose + 10% FBS, 0.0632 µM
[17] = RPMI 5 mM glucose + 10% FBS, 0.19 µM
[18] = RPMI 5 mM glucose + 10% FBS, 0.569 µM
[19] = RPMI 5 mM glucose + 10% FBS, 1.71 µM
[20] = RPMI 5 mM glucose + 10% FBS, 5.12 µM
[21] = RPMI 5 mM glucose + 10% FBS, 15.4 µM
[22] = RPMI 5 mM glucose + 10% FBS, 46.1 µM
[23] = RPMI 5 mM glucose + 10% dialyzed FBS, 0.000781 µM
[24] = RPMI 5 mM glucose + 10% dialyzed FBS, 0.00234 µM
[25] = RPMI 5 mM glucose + 10% dialyzed FBS, 0.00702 µM
[26] = RPMI 5 mM glucose + 10% dialyzed FBS, 0.0211 µM
[27] = RPMI 5 mM glucose + 10% dialyzed FBS, 0.0632 µM
[28] = RPMI 5 mM glucose + 10% dialyzed FBS, 0.19 µM
[29] = RPMI 5 mM glucose + 10% dialyzed FBS, 0.569 µM
[30] = RPMI 5 mM glucose + 10% dialyzed FBS, 1.71 µM
[31] = RPMI 5 mM glucose + 10% dialyzed FBS, 5.12 µM
[32] = RPMI 5 mM glucose + 10% dialyzed FBS, 15.4 µM
[33] = RPMI 5 mM glucose + 10% dialyzed FBS, 46.1 µM

Compound | cell viability [1] [%] | cell viability [2] [%] | cell viability [3] [%] | cell viability [4] [%] | cell viability [5] [%] | cell viability [6] [%] | cell viability [7] [%] | cell viability [8] [%] | cell viability [9] [%] | cell viability [10] [%] | cell viability [11] [%] | cell viability [12] [%] | cell viability [13] [%] | cell viability [14] [%] | cell viability [15] [%] | cell viability [16] [%] | cell viability [17] [%] | cell viability [18] [%] | cell viability [19] [%] | cell viability [20] [%] | cell viability [21] [%] | cell viability [22] [%] | cell viability [23] [%] | cell viability [24] [%] | cell viability [25] [%] | cell viability [26] [%] | cell viability [27] [%] | cell viability [28] [%] | cell viability [29] [%] | cell viability [30] [%] | cell viability [31] [%] | cell viability [32] [%] | cell viability [33] [%]
CCOC(=O)[C@H]1O[C@@H]1C(=O)N[C@@H](CC(C)C)C(=O)NCCC(C)C | 116 | 119 | 109 | 125 | 120 | 132 | 69.4 | 114 | 118 | 118 | 109 | 111 | 99.4 | 102 | 96.2 | 110 | 88.4 | 91.1 | 124 | 107 | 104 | 94.6 | – | – | – | – | – | – | – | – | – | – | –
N#C/C(=C1/Nc2ccccc2S1)c1ccnc(OCc2ccc(CN3CCOCC3)cc2)n1 | 103 | 97.2 | 112 | 101 | 109 | 108 | 106 | 100 | 121 | 108 | 99.3 | 114 | 98.1 | 107 | 115 | 99.4 | 115 | 115 | 117 | 102 | 110 | 87.7 | 85 | 84.4 | 118 | 110 | 111 | 100 | 113 | 113 | 104 | 109 | 87.8
Cc1c(C(=O)c2cccc3ccccc23)c2cccc3c2n1[C@H](CN1CCOCC1)CO3 | 99.3 | 78.2 | 85.2 | 89.5 | 89.7 | 28.8 | 97.9 | 86.7 | 84 | 78.1 | 4.91 | 93.6 | 74.4 | 71.3 | 94.6 | 88.6 | 47.8 | 93.1 | 80.4 | 95.6 | 84.9 | 4.48 | 104 | 80.4 | 82 | 105 | 98 | 65.1 | 92.3 | 93.1 | 91.7 | 76.5 | 5.76
COC(=O)[C@H](c1ccccc1Cl)N1CCc2sccc2C1 | 75.5 | 89.5 | 105 | 110 | 96.3 | 111 | 106 | 120 | 109 | 121 | 111 | 87.5 | 80.4 | 97.2 | 98.9 | 93.3 | 102 | 106 | 103 | 107 | 107 | 108 | 84.1 | 84.1 | 86.5 | 108 | 110 | 91.6 | 95.3 | 135 | 116 | 122 | 99.5
Nc1ccc([S+](=O)([O-])Nc2ncccn2)cc1 | 100 | 103 | 105 | 96.8 | 109 | 117 | 99.7 | 110 | 103 | 109 | 112 | 110 | 108 | 120 | 86.1 | 117 | 117 | 108 | 122 | 126 | 114 | 110 | 111 | 109 | 125 | 74.4 | 122 | 136 | 133 | 129 | 145 | 134 | 124
O=[S+]([O-])(NCCNC/C=C/c1ccc(Br)cc1)c1cccc2cnccc12 | 97.5 | 94.8 | 97.5 | 42.4 | 101 | 89.5 | 91.1 | 82.3 | 68.7 | 43.1 | 48.2 | 115 | 119 | 115 | 48.9 | 114 | 131 | 105 | 103 | 62.5 | 58.4 | 43.7 | 95.5 | 96.6 | 93.8 | 45.3 | 91.6 | 87.7 | 83.8 | 74.5 | 56.4 | 41.6 | 34.9
Cc1cccc2c1CC[C@H](CN1CCC(c3c(Cl)cccc3Cl)CC1)C[C@@H]2O | 71 | 98.2 | 113 | 111 | 128 | 114 | 116 | 122 | 101 | 96.6 | 79.9 | 112 | 138 | 120 | 127 | 130 | 111 | 142 | 133 | 108 | 72.5 | 58 | 88.5 | 109 | 118 | 126 | 120 | 95.8 | 104 | 112 | 91.9 | 70.6 | 58.3
C1COC(NC(C2CC2)C2CC2)=N1 | 79.5 | 78 | 66.1 | 95.3 | 72.9 | 87.9 | 81.2 | 21.6 | 88.7 | 99 | 60.1 | 72.5 | 92 | 72.4 | 75.8 | 79.5 | 81.4 | 87.2 | 15.3 | 75.6 | 75.6 | 45.9 | 74.6 | 89.1 | 66.9 | 75.7 | 73.6 | 81.8 | 106 | 16.6 | 87.5 | 105 | 36.4
